Test results: ChEMBL document CHEMBL1201862, “PubChem BioAssay data set” (2004)
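Step 1: Grow cells in 96-well plates. Step 2: Expose to compound for 48 hours at 5 concentrations. Step 3: Interpolate endpoints linearly; if unreached, use highest concentration. The concentration for 50% growth inhibition is given as GI50.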 Activity calls are given as the source filed them. No stated cut-off is given here; in the data, active = GI50 up to about 1.1 µM and inactive = higher.

Assays:
Test in all cases: growth of human tumour cells (NCI), 48 h
[1] = system: HL-60
[2] = system: CCRF-CEM
[3] = system: OVCAR-5
[4] = system: ACHN
[5] = system: RXF 393
[6] = system: RXF 631
[7] = system: NCI-H23
[8] = system: M19-MEL
[9] = system: SW-620
[10] = system: HOP-92
[11] = system: SK-MEL-5
[12] = system: SNB-78
[13] = system: KM12
[14] = system: SR
[15] = system: SK-MEL-28
[16] = system: U-251
[17] = system: XF498
[18] = system: Malme-3M
[19] = system: UACC-257
[20] = system: DMS-114
[21] = system: M14
[22] = system: IGROV-1
[23] = system: OVCAR-8
[24] = system: DMS-273
[25] = system: A549
[26] = system: SK-OV-3
[27] = system: NCI-H226
[28] = system: OVCAR-4
[29] = system: SN12C
[30] = system: HCC 2998
[31] = system: KM-20L2
[32] = system: COLO 205
[33] = system: MOLT-4
[34] = system: UACC-62
[35] = system: HCT-116
[36] = system: UO-31
[37] = system: SF-295
[38] = system: LXFL 529
[39] = system: RPMI-8226
[40] = system: NCI-H460
[41] = system: CAKI-1
[42] = system: SF-268
[43] = system: NCI-H522
[44] = system: SNB-19
[45] = system: HT-29
[46] = system: LOX IMVI
[47] = system: SF-539
[48] = system: HOP-62
[49] = system: DLD-1
[50] = system: K562
[51] = system: OVCAR-3
[52] = system: SNB-75
[53] = system: 786-0
[54] = system: TK-10
[55] = system: A498
[56] = system: EKVX
[57] = system: SK-MEL-2
[58] = system: HCT-15
[59] = system: HOP-18

CC(=O)N(C)OC(=O)CC(=O)c1ccccc1
GI50 [1]: > 100 µM (inactive) | GI50 [2]: > 100 µM (inactive) | GI50 [3]: > 100 µM (inactive) | GI50 [4]: > 100 µM (inactive) | GI50 [5]: > 100 µM (inactive) | GI50 [6]: > 100 µM (inactive) | GI50 [7]: > 100 µM (inactive) | GI50 [8]: > 100 µM (inactive) | GI50 [9]: > 100 µM (inactive) | GI50 [10]: > 100 µM (inactive) | GI50 [11]: > 100 µM (inactive) | GI50 [12]: > 100 µM (inactive) | GI50 [13]: > 100 µM (inactive) | GI50 [14]: > 100 µM (inactive) | GI50 [15]: > 100 µM (inactive) | GI50 [16]: > 100 µM (inactive) | GI50 [17]: > 100 µM (inactive) | GI50 [18]: > 100 µM (inactive) | GI50 [19]: > 100 µM (inactive) | GI50 [20]: > 100 µM (inactive) | GI50 [21]: > 100 µM (inactive) | GI50 [22]: > 100 µM (inactive) | GI50 [23]: > 100 µM (inactive) | GI50 [24]: > 100 µM (inactive) | GI50 [25]: > 100 µM (inactive) | GI50 [26]: > 100 µM (inactive) | GI50 [27]: > 100 µM (inactive) | GI50 [28]: > 100 µM (inactive) | GI50 [29]: > 100 µM (inactive) | GI50 [30]: > 100 µM (inactive) | GI50 [31]: > 100 µM (inactive) | GI50 [32]: > 100 µM (inactive) | GI50 [33]: > 100 µM (inactive) | GI50 [34]: > 100 µM (inactive) | GI50 [35]: > 100 µM (inactive) | GI50 [36]: > 100 µM (inactive) | GI50 [37]: > 100 µM (inactive) | GI50 [38]: > 100 µM (inactive) | GI50 [39]: > 100 µM (inactive) | GI50 [40]: > 100 µM (inactive) | GI50 [41]: > 100 µM (inactive) | GI50 [42]: > 100 µM (inactive) | GI50 [43]: > 100 µM (inactive) | GI50 [44]: > 100 µM (inactive) | GI50 [45]: > 100 µM (inactive) | GI50 [46]: > 100 µM (inactive) | GI50 [47]: > 100 µM (inactive) | GI50 [48]: > 100 µM (inactive) | GI50 [49]: > 100 µM (inactive) | GI50 [50]: > 100 µM (inactive) | GI50 [51]: > 100 µM (inactive) | GI50 [52]: 76.9 µM (inactive) | GI50 [53]: > 100 µM (inactive) | GI50 [54]: > 100 µM (inactive)

Oc1ccc(O)c(-n2cccn2)c1
GI50 [1]: 18.7 µM (inactive) | GI50 [2]: 20.6 µM (inactive) | GI50 [3]: 88.9 µM (inactive) | GI50 [4]: > 100 µM (inactive) | GI50 [5]: 38.1 µM (inactive) | GI50 [6]: 50 µM (inactive) | GI50 [7]: > 100 µM (inactive) | GI50 [8]: 30 µM (inactive) | GI50 [9]: 29.3 µM (inactive) | GI50 [10]: 45.9 µM (inactive) | GI50 [11]: > 100 µM (inactive) | GI50 [55]: > 100 µM (inactive) | GI50 [12]: 58.5 µM (inactive) | GI50 [13]: > 100 µM (inactive) | GI50 [15]: > 100 µM (inactive) | GI50 [16]: > 100 µM (inactive) | GI50 [17]: > 100 µM (inactive) | GI50 [18]: > 100 µM (inactive) | GI50 [20]: 29.6 µM (inactive) | GI50 [21]: > 100 µM (inactive) | GI50 [22]: > 100 µM (inactive) | GI50 [23]: 40.7 µM (inactive) | GI50 [24]: 75.5 µM (inactive) | GI50 [25]: > 100 µM (inactive) | GI50 [26]: > 100 µM (inactive) | GI50 [28]: > 100 µM (inactive) | GI50 [29]: 94.4 µM (inactive) | GI50 [56]: > 100 µM (inactive) | GI50 [30]: > 100 µM (inactive) | GI50 [57]: 37 µM (inactive) | GI50 [31]: > 100 µM (inactive) | GI50 [32]: 23 µM (inactive) | GI50 [33]: 21.9 µM (inactive) | GI50 [34]: 50.4 µM (inactive) | GI50 [36]: 56.4 µM (inactive) | GI50 [37]: 95.1 µM (inactive) | GI50 [38]: 20.9 µM (inactive) | GI50 [39]: 25.6 µM (inactive) | GI50 [40]: > 100 µM (inactive) | GI50 [41]: 19.1 µM (inactive) | GI50 [42]: 85.9 µM (inactive) | GI50 [43]: 16.6 µM (inactive) | GI50 [44]: > 100 µM (inactive) | GI50 [45]: 65.9 µM (inactive) | GI50 [46]: 52.7 µM (inactive) | GI50 [58]: > 100 µM | GI50 [47]: > 100 µM (inactive) | GI50 [48]: > 100 µM (inactive) | GI50 [49]: 63 µM (inactive) | GI50 [50]: 24.2 µM (inactive) | GI50 [52]: > 100 µM (inactive) | GI50 [53]: 62.1 µM (inactive) | GI50 [54]: 32.1 µM (inactive)

COC(=O)/C=C\C1C(C(=O)OC)C2(C(=O)OC)CCC1(C(=O)OC)N2 (stereo not given)
GI50 [1]: 2.51 µM (inactive) | GI50 [2]: 4.15 µM (inactive) | GI50 [3]: 20 µM (inactive) | GI50 [4]: 9.33 µM (inactive) | GI50 [5]: 7.21 µM (inactive) | GI50 [6]: 20.8 µM (inactive) | GI50 [7]: 18.7 µM (inactive) | GI50 [8]: 14.7 µM (inactive) | GI50 [9]: 3.13 µM (inactive) | GI50 [10]: 4.81 µM (inactive) | GI50 [11]: 19.3 µM (inactive) | GI50 [55]: 18.1 µM (inactive) | GI50 [12]: 10.2 µM (inactive) | GI50 [13]: 20.5 µM (inactive) | GI50 [14]: 5.37 µM (inactive) | GI50 [15]: 13.6 µM (inactive) | GI50 [16]: 18.5 µM (inactive) | GI50 [17]: 19.1 µM (inactive) | GI50 [18]: 5.98 µM (inactive) | GI50 [19]: 6.5 µM (inactive) | GI50 [21]: 14.9 µM (inactive) | GI50 [22]: 26.9 µM (inactive) | GI50 [23]: 7.19 µM (inactive) | GI50 [24]: 18.2 µM (inactive) | GI50 [25]: 20.4 µM (inactive) | GI50 [26]: 17.9 µM (inactive) | GI50 [27]: 19.1 µM (inactive) | GI50 [28]: 19.1 µM (inactive) | GI50 [29]: 16.3 µM (inactive) | GI50 [56]: 27.2 µM (inactive) | GI50 [30]: 17.3 µM (inactive) | GI50 [57]: 15.5 µM (inactive) | GI50 [31]: 31.9 µM (inactive) | GI50 [32]: 4.19 µM (inactive) | GI50 [33]: 3.77 µM (inactive) | GI50 [34]: 15.9 µM (inactive) | GI50 [35]: 13.8 µM (inactive) | GI50 [36]: 17 µM (inactive) | GI50 [37]: 23.4 µM (inactive) | GI50 [59]: 15.1 µM (inactive) | GI50 [38]: 6.75 µM (inactive) | GI50 [39]: 5.08 µM (inactive) | GI50 [40]: 21.6 µM (inactive) | GI50 [41]: 2.88 µM (inactive) | GI50 [42]: 23.8 µM (inactive) | GI50 [43]: 0.681 µM (active) | GI50 [44]: 15.8 µM (inactive) | GI50 [45]: 21.2 µM (inactive) | GI50 [46]: 13.4 µM (inactive) | GI50 [58]: 3.33 µM | GI50 [47]: 17.8 µM (inactive) | GI50 [48]: 18.1 µM (inactive) | GI50 [49]: 3.25 µM (inactive) | GI50 [50]: 12 µM (inactive) | GI50 [51]: 15.3 µM (inactive) | GI50 [52]: 18.5 µM (inactive) | GI50 [53]: 15.3 µM (inactive) | GI50 [54]: 4.47 µM (inactive)
